In the Deep4Chem optical property database one finds absorption maximum data, which are given here for 39 compounds.

The nature of this series: solvent given as SMILES.

“And” between values parts separate entries of the source, which are not always exact repeats. Equal values may be shown once.

In turn, `Nc1ccc(/C=C/c2ccc3ccccc3c2)cc1` had an absorption maximum (in CC#N) of 348 nm and an absorption maximum (in CCCCCC) of 342 nm.
`CCN(CC)c1ccc2c(-c3ccccc3C(=O)[O-])c3ccc(=[N+](CC)CC)cc-3oc2c1`: the absorption maximum worked out at 555 nm (in CC#N), 539 nm (in CCO), 560 nm (in CN(C)C=O) and 554 nm (in O).
Consider `COc1ccc(N(c2ccccc2)c2ccccc2)cc1`, for which, where the note is “in Cc1ccccc1”, the absorption maximum is given as 299 nm.
With `COc1ccc(-c2cc3c(s2)c(C(=O)c2ccccc2)cc(=O)n3Cc2ccccc2)cc1`, the absorption maximum runs as follows: (in CC#N) 406 nm; (in ClCCl) 416 nm.
`c1ccc(-p2c(-c3cccs3)cc3ccccc32)cc1` (configuration not stated) gave an absorption maximum (in C1CCOC1) of 350 nm.
Under “in CCO”, `CC(C)n1c2cc(O)c(F)cc2c(=O)c2cc(F)c(O)cc21` showed an absorption maximum of 379 nm.
`COc1ccc(-c2nc3ccccc3nc2/C=C/N2CCCC2)s1`: the absorption maximum (in CC#N) is 456 nm.
`COC(=O)C1=NNC(C(=O)OC)=C2c3ccccc3C(=O)c3ccccc3C12` (configuration not stated) registered an absorption maximum (in CC#N) of 391 nm.
The compound `Cc1cccc2nc(-c3cc(=O)c(OCc4ccccc4)co3)c(NC3CCCCC3)n12` showed an absorption maximum (in ClCCl) of 352 nm.
Regarding `CC(C)(C)c1ccc(-c2c3ccccc3c3n2[B-](F)(F)[N+]2=Cc4c5ccccc5c(-c5ccc(C(C)(C)C)cc5)n4[B-](F)(F)[N+]2=C3)cc1`, the absorption maximum by setting is: (in CC#N) 557 nm; (in CCCCCC) 568 nm; (in CN(C)C=O) 566 nm; (in Cc1ccccc1) 573 nm; (in ClCCl) 567 nm.
Compound `COc1ccc2c(-c3nc(-c4ccccc4)no3)cc(=O)oc2c1` returned an absorption maximum (in CCO) of 344 nm and an absorption maximum (in ClC(Cl)Cl) of 345 nm.
With `c1ccc(-c2nc(-c3ccc(-c4ccc(-c5nc(-c6ccccc6)c(-c6ccccc6)o5)cc4)cc3)oc2-c2ccccc2)cc1`, the absorption maximum (in C1COCCO1) is reported as 353 nm.
With `Fc1c(F)c(-n2c3ccccc3c3ccccc32)c(F)c(F)c1-c1nnc(-c2ccccc2)o1`, the absorption maximum (in Cc1ccccc1) is reported as 344 nm.
For the compound `COc1ccc(C#Cc2ncc(-c3ccccc3)o2)cc1OC`, under “in ClCCl”, the absorption maximum turned out to be 330 nm.
`Nc1ccc2c(c1)C(=O)c1ccc(N)cc1C2=O`: the absorption maximum was 438 nm (in CC#N); 484 nm (in CC(C)O); 477 nm (in CCO); 433.4 nm (in CCOC(C)=O); 474 nm (in CO).
As for `O=C(O)COc1cccc(-c2c3nc(cc4ccc([nH]4)c(-c4cccc(OCC(=O)O)c4)c4nc(cc5ccc2[nH]5)CC4)CC3)c1`, the absorption maximum (in CS(C)=O) is given as 736 nm.
For the compound `Oc1ccc2ncccc2c1`, the absorption maximum reads like this: (in CC#N) 331 nm; (in CCCC#N) 333 nm; (in CO) 331 nm; (in Cc1ccccc1) 332 nm; (in ClCCl) 330 nm.
Consider `O=C(O)c1c2ccccc2nc2ccccc12`, for which the absorption maximum was 360 nm (in C1CCOC1); 362 nm (in C1COCCO1); 354 nm (in CC#N); 370 nm (in CCCCCO); 370 nm (in CCCCO); 368 nm (in CCCO). Moreover, the absorption maximum turned out to be 369 nm (in CCO); 356 nm (in CO); 360 nm (in COCCOC); 362 nm (in ClC(Cl)Cl); 362 nm (in ClCCl); 356 nm (in OCCO).
The compound `c1ccc(-c2nc(-c3ccccc3)nc(-c3ccc(-n4c5ccccc5c5ccc6c(c7ccccc7n6-c6ccccc6)c54)cc3)n2)cc1` returned an absorption maximum (in Cc1ccccc1) of 360 nm.
The compound `CCCCN(CCCC)c1ccc(C#Cc2cc(C#Cc3ccc(N(CCCC)CCCC)cc3)c(C#Cc3ccc([N+](=O)[O-])cc3)cc2C#Cc2ccc([N+](=O)[O-])cc2)cc1` showed an absorption maximum (in ClCCl) of 426 nm.
Consider `CCC1(CC)c2cc(C#Cc3cc(C#Cc4ccc5c(c4)C(CC)(CC)c4cc(N(c6ccccc6)c6ccccc6)ccc4-5)c4ccc5c(C#Cc6ccc7c(c6)C(CC)(CC)c6cc(N(c8ccccc8)c8ccccc8)ccc6-7)cc(C#Cc6ccc7c(c6)C(CC)(CC)c6cc(N(c8ccccc8)c8ccccc8)ccc6-7)c6ccc3c4c65)ccc2-c2ccc(N(c3ccccc3)c3ccccc3)cc21`, for which the absorption maximum was determined as 500 nm (in C1CCCCC1); 506 nm (in C1CCOC1); 502 nm (in CCOC(C)=O); 506 nm (in CN(C)C=O); 503 nm (in Cc1ccccc1); 503 nm (in ClC(Cl)Cl). Moreover, the absorption maximum (in ClCCl) came out at 504 nm.
As to `Cc1cccc2nc3c(=O)[nH]c(=O)[nH]c3nc12`, the absorption maximum (in C1COCCO1) is given as 379 nm; the absorption maximum (in CC#N) came to 379 nm; the absorption maximum (in CCO) was 381 nm; the absorption maximum (in CO) worked out at 382 nm; the absorption maximum (in ClCCCl) was determined as 380 nm; the absorption maximum (in O) stood at 386 nm.
As for `CCn1c(-c2ccc(N(c3ccccc3)c3cccc4ccccc34)cc2)c(-c2ccc3ccccc3c2)c(-c2ccc3ccccc3c2)c1-c1ccc(N(c2ccccc2)c2cccc3ccccc23)cc1`, the absorption maximum (in CCOC(C)=O) is given as 296 nm.
As for `N#CC(C#N)=C(/C=C/c1cn(-c2ccccc2)nc1-c1ccccc1)c1ccccc1`, the absorption maximum (in C1CCOC1) came out at 402 nm; the absorption maximum (in C1COCCO1) is 399 nm; the absorption maximum (in CCO) is listed as 402 nm; the absorption maximum (in CCOC(C)=O) came out at 399 nm; the absorption maximum (in CN(C)C=O) amounted to 405 nm; the absorption maximum (in CO) amounted to 397 nm. In addition, the absorption maximum reads like this: (in CS(C)=O) 409 nm; (in Cc1ccccc1) 405 nm; (in ClC(Cl)Cl) 406 nm; (in ClCCl) 403 nm.
Under “in CO”, `CC1(C)C(/C=C/C2=C(Oc3ccc(CCN=C=S)cc3I)C(=C/C=C3/N(CCCS(=O)(=O)[O-])c4ccccc4C3(C)C)/CCC2)=[N+](CCCS(=O)(=O)[O-])c2ccccc21` came in with an absorption maximum of 766 nm.
Take `Cc1cc(=O)c2ccc(N)cc2o1`: the absorption maximum was determined as 323 nm (in C1CCOC1); 314 nm (in C1COCCO1); 315 nm (in CC#N); 327 nm (in CC(C)O); 329 nm (in CCCCO); 329 nm (in CCCO). The absorption maximum runs as follows: (in CCOC(C)=O) 315 nm; (in CN(C)C=O) 325 nm; (in CO) 327 nm; (in CS(C)=O) 326 nm; (in ClC(Cl)Cl) 311 nm; (in O) 322 nm.
With `C(S/C=C/c1ccc(/C=C/SC=C(c2ccccc2)c2ccccc2)cc1)=C(c1ccccc1)c1ccccc1`, the absorption maximum (in ClCCl) is listed as 366 nm.
In turn, `CCCC1(CCC)c2cc(-c3ccc(C(C)(C)C)cc3)ccc2-c2ccc(-c3ccc4c(c3)C(CCC)(CCC)c3cc(-c5ccc6c(c5)C(CCC)(CCC)c5cc(-c7ccc8c(c7)C(CCC)(CCC)c7cc(-c9ccc(C(C)(C)C)cc9)ccc7-8)ccc5-6)ccc3-4)cc21` returned an absorption maximum (in C1CCCCC1) of 366 nm.
On to `COCCC1=Cc2nc1ccc1[nH]c(c3nc(ccc4[nH]c2cc4CCOC)C(CCOC)=C3)c(CN(C)C)c1CCOC`, for which, where the note is “in Cc1ccccc1”, the absorption maximum is 643 nm.
In the case of `CC(C)(C)c1ccc(C2=CC3=C(c4ccccc4)c4cc(-c5ccc(C(C)(C)C)cc5)c(-c5ccc(C(C)(C)C)cc5)n4[B-](F)(F)[N+]3=C2c2ccc(C(C)(C)C)cc2)cc1`, the absorption maximum is, setting by setting: (in C1CCCCC1) 602 nm; (in C1CCOC1) 601 nm; (in CC#N) 590 nm; (in Cc1ccccc1) 605 nm; (in ClCCl) 598 nm.
Take `CN(C)c1ccc2c(c1)C(C)(C)C(=O)C=C2`: the absorption maximum (in O) came out at 413 nm.
Consider `COc1cc(C(=O)O)ccc1O`, for which the absorption maximum reads like this: (in C1CCCCC1) 287.2 nm; (in C1COCCO1) 290 nm; (in CC#N) 290 nm; (in CC(C)(C)O) 291 nm; (in CC(C)CO) 292.4 nm; (in CC(C)O) 291.6 nm. Moreover, the absorption maximum was 290.5 nm (in CCOC(C)=O); 293.6 nm (in CO); 285 nm and 283.2 nm (in O).
`CC1(C)c2ccccc2N(c2cccc(S(=O)(=O)c3cccc(N4c5ccccc5C(C)(C)c5ccccc54)c3)c2)c2ccccc21` returned an absorption maximum (in C1CCOC1) of 281 nm, an absorption maximum (in Cc1ccccc1) of 301 nm and an absorption maximum (in ClC(Cl)Cl) of 287 nm.
On to `CCn1c2ccccc2c2cc(-c3cc(-c4ccc5c(c4)c4ccccc4n5CC)ncn3)ccc21`, for which the absorption maximum is 360 nm (in C1CCOC1); 359 nm (in CCOC(C)=O); 363 nm (in CN(C)C=O); 360 nm (in Cc1ccccc1); 360 nm (in ClCCl).
As to `CCNc1cc2c(cc1C)C(c1ccccc1C(=O)O)=C1CCCC(/C=C/C3=[N+](C)c4ccccc4C3(C)C)=C1O2`, the absorption maximum runs as follows: (in CC#N) 696 nm; (in CCO) 688 nm; (in CO) 690 nm; (in ClC(Cl)Cl) 702 nm.
With `CC[n+]1c(C=C2C(=O)C(C=C3N(C)c4ccc(Cl)cc4C3(C)C)=C2[O-])[se]c2ccccc21`, the absorption maximum reads like this: (in CO) 644 nm; (in ClC(Cl)Cl) 655 nm; (in ClCCl) 659 nm.
On to `CC1=C(c2ccccc2)Oc2cc3nc4ccccc4nc3c3cccc1c23`, for which the absorption maximum (in ClCCl) is 495 nm.
The compound `COc1ccc(/C=C2\OC(=O)c3ccccc32)cc1` yielded an absorption maximum (in CC#N) of 336 nm.
Regarding `CC1(C)C(/C=C/C2=C(Cl)C(=C/C=C3/N(Cc4ccc(F)cc4)c4ccccc4C3(C)C)/CCC2)=[N+](Cc2ccc(F)cc2)c2ccccc21`, the absorption maximum (in CO) is listed as 784 nm.
